In ChEMBL document CHEMBL4184114, “Discovery of selective, orally bioavailable inhibitor of mouse chitotriosidase” (Bioorg Med Chem Lett, 2018):

Experiments:
[1] = target: Acidic mammalian chitinase (Mus musculus, UniProt Q91XA9); test: Inhibition of mouse AMCase using 4-methylumbelliferyl beta-D-N,N' diacetylchitobioside hydrate as substrate measured after 60 mins by fluorometric method
Chitotriosidase-1 = Chitotriosidase-1 (Mus musculus, UniProt Q9D7Q1); test: Inhibition of mouse CHIT1 using 4-methylumbelliferyl beta-D-N,N',N'' triacetylchitotrioside as substrate measured after 60 mins by fluorometric method
Sequence of Chitotriosidase-1 (Q9D7Q1 whole entry): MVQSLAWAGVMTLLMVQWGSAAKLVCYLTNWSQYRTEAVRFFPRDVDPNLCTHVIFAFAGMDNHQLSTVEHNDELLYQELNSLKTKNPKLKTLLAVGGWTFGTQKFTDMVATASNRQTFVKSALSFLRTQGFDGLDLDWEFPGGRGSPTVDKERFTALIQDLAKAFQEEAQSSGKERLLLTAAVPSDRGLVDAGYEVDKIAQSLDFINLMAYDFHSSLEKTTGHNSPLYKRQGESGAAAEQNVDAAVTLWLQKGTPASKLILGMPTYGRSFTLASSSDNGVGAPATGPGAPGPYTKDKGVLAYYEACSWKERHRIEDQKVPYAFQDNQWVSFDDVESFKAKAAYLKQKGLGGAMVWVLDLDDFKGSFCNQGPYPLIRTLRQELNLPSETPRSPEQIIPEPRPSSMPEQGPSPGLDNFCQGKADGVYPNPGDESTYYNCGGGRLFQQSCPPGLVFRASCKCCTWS

[2] = Cmax in BALB/c mouse at 10 mg/kg, po by LC-MS/MS analysis; assay type: ADME, organism-based; parameters: dose 10 mg/kg, route oral; conditions: in vivo
[3] = Half-life in BALB/c mouse at 10 mg/kg, po by LC-MS/MS analysis; assay type: ADME, organism-based; conditions: in vivo
[4] = Volume of distribution at steady state in BALB/c mouse at 3 mg/kg, iv administered as bolus dose by LC-MS/MS analysis; assay type: ADME, organism-based; conditions: in vivo, read-out: Vdss
[5] = AUC (0 to infinity) in BALB/c mouse at 3 mg/kg, iv administered as bolus dose by LC-MS/MS analysis; assay type: ADME, organism-based; parameters: dose 3 mg/kg, route intravenous, time infinity; conditions: in vivo
[6] = Clearance in BALB/c mouse at 3 mg/kg, iv administered as bolus dose by LC-MS/MS analysis; assay type: ADME, organism-based; conditions: in vivo
[7] = Half-life in BALB/c mouse at 3 mg/kg, iv administered as bolus dose by LC-MS/MS analysis; assay type: ADME, organism-based; conditions: in vivo
[8] = Cmax in BALB/c mouse at 3 mg/kg, iv administered as bolus dose by LC-MS/MS analysis; assay type: ADME, organism-based; parameters: dose 3 mg/kg, route intravenous; conditions: in vivo
[9] = Oral bioavailability in BALB/c mouse at 10 mg/kg by LC-MS/MS analysis; assay type: ADME, organism-based; conditions: in vivo
[10] = Tmax in BALB/c mouse at 10 mg/kg, po by LC-MS/MS analysis; assay type: ADME, organism-based; conditions: in vivo
[11] = AUC (0 to infinity) in BALB/c mouse at 10 mg/kg, po by LC-MS/MS analysis; assay type: ADME, organism-based; parameters: dose 10 mg/kg, time infinity, route oral; conditions: in vivo

Sequence of Acidic mammalian chitinase (Q91XA9 whole entry): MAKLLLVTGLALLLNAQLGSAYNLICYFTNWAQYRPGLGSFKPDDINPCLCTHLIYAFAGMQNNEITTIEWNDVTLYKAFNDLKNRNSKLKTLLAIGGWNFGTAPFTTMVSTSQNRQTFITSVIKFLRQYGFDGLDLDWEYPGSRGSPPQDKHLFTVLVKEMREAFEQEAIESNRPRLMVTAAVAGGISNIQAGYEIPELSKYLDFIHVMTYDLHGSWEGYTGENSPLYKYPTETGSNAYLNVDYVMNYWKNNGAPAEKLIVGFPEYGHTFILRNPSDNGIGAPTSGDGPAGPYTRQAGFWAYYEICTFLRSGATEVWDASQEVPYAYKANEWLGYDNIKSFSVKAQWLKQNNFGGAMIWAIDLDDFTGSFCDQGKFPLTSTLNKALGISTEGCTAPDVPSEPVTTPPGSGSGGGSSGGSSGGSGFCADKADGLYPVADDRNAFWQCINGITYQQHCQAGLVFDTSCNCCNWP

**Q.** Which IC50 [1] does the source give for Nc1nc(N2CCC(N3C[C@@H]4C[C@H](O)CN4C[C@@H]3Cc3ccc(Cl)cc3)CC2)n[nH]1 here?
**A.** The IC50 was 130 nM.

**Q.** And the IC50 (Chitotriosidase-1)?
**A.** Its IC50 is 29 nM.

**Q.** Which results are given for C[C@H]1CN(C2CCN(c3n[nH]c(N)n3)CC2)[C@@H](Cc2ccc(Cl)cc2)CN1Cc1ccc(Cl)cc1?
**A.** IC50 [1]: 1400 nM; IC50 (Chitotriosidase-1): 495 nM

**Q.** What does the source list for C[C@H]1CN(C2CCN(c3nnc(N)[nH]3)CC2)[C@@H](Cc2ccc(Cl)cc2)CN1C?
**A.** IC50 [1]: 1220 nM; IC50 (Chitotriosidase-1): 186 nM

**Q.** For CC(=O)N1C[C@H](Cc2ccc(Cl)cc2)N(C2CCN(c3nnc(N)[nH]3)CC2)C[C@@H]1C, which IC50 [1] is on record?
**A.** The IC50 was 6020 nM.

**Q.** And the IC50 (Chitotriosidase-1)?
**A.** The IC50 was 4380 nM.

**Q.** With CC(C)CN1C[C@H](Cc2ccc(Cl)cc2)N(C2CCN(c3n[nH]c(N)n3)CC2)C[C@@H]1C as the compound, how does the Cmax [2] read?
**A.** The Cmax was 840 ng/mL.

**Q.** And the IC50 [1]?
**A.** The IC50 was 4170 nM.

**Q.** What about the half-life [3] of the same compound?
**A.** Its half-life is 2.83 h.

**Q.** And the Vd [4]?
**A.** Its Vd is 4.6 L/kg.

**Q.** What about the AUC(0-inf) [5] of the same compound?
**A.** Its AUC(0-inf) is 1750 ng·h/mL.

**Q.** And the clearance [6]?
**A.** The clearance was 28.5 mL/min/kg.

**Q.** What about the half-life [7] of the same compound?
**A.** The half-life was 2.87 h.

**Q.** What about the Cmax [8] of the same compound?
**A.** Its Cmax is 1480 ng/mL.

**Q.** And the bioavailability [9]?
**A.** The bioavailability was 61.2%.

**Q.** And the IC50 (Chitotriosidase-1)?
**A.** Its IC50 is 29 nM.

**Q.** What about the Tmax [10] of the same compound?
**A.** The Tmax was 0.5 h.

**Q.** And the AUC(0-inf) [11]?
**A.** Its AUC(0-inf) is 3570 ng·h/mL.

**Q.** For Nc1nc(N2CCC(N3C[C@@H]4CCCCN4C[C@@H]3Cc3ccc(Cl)cc3)CC2)n[nH]1, which IC50 [1] is on record?
**A.** Its IC50 is 525 nM.

**Q.** What about the IC50 (Chitotriosidase-1) of the same compound?
**A.** The IC50 was 175 nM.

**Q.** Which IC50 [1] does the source give for CN1CCN(C2CCN(c3nnc(N)[nH]3)CC2)[C@@H](Cc2ccc(Cl)cc2)C1 here?
**A.** Its IC50 is 7600 nM.

**Q.** And the IC50 (Chitotriosidase-1)?
**A.** Its IC50 is 1590 nM.

**Q.** For C[C@H]1CN(C2CCN(c3n[nH]c(N)n3)CC2)[C@@H](Cc2ccc(Cl)cc2)CN1CC(=O)N(C)C, which IC50 [1] is on record?
**A.** Its IC50 is 751 nM.

**Q.** What about the IC50 (Chitotriosidase-1) of the same compound?
**A.** The IC50 was 24 nM.

**Q.** What does the source list for CN1C[C@H](Cc2ccc(Cl)cc2)N(C2CCN(c3nnc(N)[nH]3)CC2)C[C@@H]1CO?
**A.** IC50 [1]: 1250 nM; IC50 (Chitotriosidase-1): 175 nM

**Q.** With C[C@H]1CN(C2CCN(c3nnc(N)[nH]3)CC2)[C@@H](Cc2ccc(Cl)cc2)CN1S(C)(=O)=O as the compound, how does the IC50 [1] read?
**A.** Its IC50 is 3720 nM.

**Q.** What about the IC50 (Chitotriosidase-1) of the same compound?
**A.** Its IC50 is 1010 nM.

**Q.** Which results are given for COC(=O)N1C[C@H](Cc2ccc(Cl)cc2)N(C2CCN(c3nnc(N)[nH]3)CC2)C[C@@H]1C?
**A.** IC50 [1]: 3750 nM; IC50 (Chitotriosidase-1): 461 nM

**Q.** With CC(C)C[C@H]1CN(C2CCN(c3n[nH]c(N)n3)CC2)[C@@H](Cc2ccc(Cl)cc2)CN1 as the compound, how does the IC50 [1] read?
**A.** Its IC50 is 2910 nM.

**Q.** And the IC50 (Chitotriosidase-1)?
**A.** Its IC50 is 135 nM.

**Q.** For CC(C)C[C@H]1CN(C2CCN(c3nnc(N)[nH]3)CC2)[C@@H](Cc2ccc(Cl)cc2)CN1C, which IC50 [1] is on record?
**A.** Its IC50 is 936 nM.

**Q.** And the IC50 (Chitotriosidase-1)?
**A.** The IC50 was 95 nM.

**Q.** What does the source list for Nc1nc(N2CCC(N3C[C@@H]4C[C@@H](O)CN4C[C@@H]3Cc3ccc(Cl)cc3)CC2)n[nH]1?
**A.** IC50 [1]: 136 nM; IC50 (Chitotriosidase-1): 48 nM

**Q.** Which results are given for CN1C[C@H](Cc2ccc(Cl)cc2)N(C2CCN(c3nnc(N)[nH]3)CC2)C[C@@H]1CC1CCCCC1?
**A.** IC50 [1]: 640 nM; IC50 (Chitotriosidase-1): 128 nM

**Q.** For CC(C)C[C@H]1CN(C2CCN(c3n[nH]c(N)n3)CC2)[C@@H](Cc2ccc(Cl)cc2)CN1CC(C)C, which IC50 [1] is on record?
**A.** Its IC50 is 5700 nM.

**Q.** And the IC50 (Chitotriosidase-1)?
**A.** Its IC50 is 41 nM.

**Q.** Which IC50 [1] does the source give for COC(=O)CN1C[C@H](Cc2ccc(Cl)cc2)N(C2CCN(c3n[nH]c(N)n3)CC2)C[C@@H]1C here?
**A.** The IC50 was 231 nM.

**Q.** What about the IC50 (Chitotriosidase-1) of the same compound?
**A.** The IC50 was 29 nM.

**Q.** For C[C@H]1CN(C2CCN(c3nnc(N)[nH]3)CC2)[C@@H](Cc2ccc(Cl)cc2)CN1CC(=O)O, which IC50 [1] is on record?
**A.** Its IC50 is 527 nM.

**Q.** What about the IC50 (Chitotriosidase-1) of the same compound?
**A.** Its IC50 is 53 nM.

**Q.** Which results are given for Nc1nnc(N2CCC(N3C[C@@H]4CCCN4C[C@@H]3Cc3ccc(Cl)cc3)CC2)[nH]1?
**A.** IC50 [1]: 697 nM; IC50 (Chitotriosidase-1): 161 nM

**Q.** What does the source list for CN1C[C@H](Cc2ccc(Cl)cc2)N(C2CCN(c3nnc(N)[nH]3)CC2)C[C@@H]1Cc1ccc(Cl)cc1?
**A.** IC50 [1]: 518 nM; IC50 (Chitotriosidase-1): 103 nM
